# Assay results as given in PubChem BioAssay AID1963959 (Molecular Pharmacology Branch, DTP, NCI, 2024).
# pIC50: −log10 of the molar value. “And” between values parts separate entries of the source, which are not always exact repeats. Identical values can stand only once.
# System: T-47D spheroids with HUVEC/MSC, viability
# Assay: Anticancer human tumor T-47D cell line growth inhibition [PI3K];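 also: spheroids exposed to agents for seven days before reading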;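 as to viability, T/C: percent of DMSO vehicle control luminescence so 100% = untreated growth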
# Conditions: for viability, T/C: stronger effect = lower value; for pIC50: curve of first compound
# Method in brief: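 Tumor cells were combined with HUVEC and MSCs into spheroids, then dosed with PI3K-inhibitor combinations over half-log ranges capped near clinical Cmax or 10 microM.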
# [1] = second compound 0.0316 µM, first compound 0.0316 µM
# [2] = second compound 0.0316 µM, first compound 0.1 µM
# [3] = second compound 0.0316 µM, first compound 0.316 µM
# [4] = second compound 0.0316 µM, first compound 1 µM
# [5] = second compound 0.1 µM, first compound 0.0316 µM
# [6] = second compound 0.1 µM, first compound 0.1 µM
# [7] = second compound 0.1 µM, first compound 0.316 µM
# [8] = second compound 0.1 µM, first compound 1 µM
# [9] = second compound 0.316 µM, first compound 0.0316 µM
# [10] = second compound 0.316 µM, first compound 0.1 µM
# [11] = second compound 0.316 µM, first compound 0.316 µM
# [12] = second compound 0.316 µM, first compound 1 µM
# [13] = second compound 1 µM, first compound 0.0316 µM
# [14] = second compound 1 µM, first compound 0.1 µM
# [15] = second compound 1 µM, first compound 0.316 µM
# [16] = second compound 1 µM, first compound 1 µM
# [17] = second compound 0.0316 µM, first compound 3.16 µM
# [18] = second compound 0.0316 µM, first compound 10 µM
# [19] = second compound 0.1 µM, first compound 3.16 µM
# [20] = second compound 0.1 µM, first compound 10 µM
# [21] = second compound 0.316 µM, first compound 3.16 µM
# [22] = second compound 0.316 µM, first compound 10 µM
# [23] = second compound 1 µM, first compound 3.16 µM
# [24] = second compound 1 µM, first compound 10 µM
# [25] = second compound 3.16 µM, first compound 0.0316 µM
# [26] = second compound 3.16 µM, first compound 0.1 µM
# [27] = second compound 3.16 µM, first compound 0.316 µM
# [28] = second compound 3.16 µM, first compound 1 µM
# [29] = second compound 3.16 µM, first compound 3.16 µM
# [30] = second compound 3.16 µM, first compound 10 µM
# [31] = second compound 10 µM, first compound 0.0316 µM
# [32] = second compound 10 µM, first compound 0.1 µM
# [33] = second compound 10 µM, first compound 0.316 µM
# [34] = second compound 10 µM, first compound 1 µM
# [35] = second compound 10 µM, first compound 3.16 µM
# [36] = second compound 10 µM, first compound 10 µM
smiles,measurement,setting,value
CCCS(=O)(=O)Nc1ccc(F)c(C(=O)c2c[nH]c3ncc(-c4ccc(Cl)cc4)cc23)c1F,"viability, T/C",compound 0.0316 µM,91% and 97.4% (2×) and 99.9%
same,"viability, T/C",compound 0.1 µM,94.3% [middle of 4 runs]
same,"viability, T/C",compound 0.316 µM,106% [middle of 4 runs]
same,"viability, T/C",compound 1 µM,107% [middle of 4 runs]
same,"viability, T/C",compound 10 µM,47.2% [middle of 4 runs]
same,IC50,curve of compound,9.4 µM [middle of 4 runs]
CCN1CCN(Cc2ccc(Nc3ncc(F)c(-c4cc(F)c5nc(C)n(C(C)C)c5c4)n3)nc2)CC1 + CC(Nc1ccc2c(c1)OCCn1cc(N3C(=O)OCC3C(F)F)nc1-2)C(N)=O,pIC50,second compound 0.00316 µM,< 6.00
same,pIC50,second compound 0.01 µM,< 6.00
same,pIC50,second compound 0.0316 µM,< 6.00
same,pIC50,second compound 0.1 µM,< 6.00
same,pIC50,second compound 0.316 µM,7.76
same,pIC50,second compound 1 µM,> 8.50
same,"viability, T/C","second compound 0.00316 µM, first compound 0.00316 µM",107%
same,"viability, T/C","second compound 0.00316 µM, first compound 0.01 µM",101%
same,"viability, T/C","second compound 0.00316 µM, first compound 0.0316 µM",91%
same,"viability, T/C","second compound 0.00316 µM, first compound 0.1 µM",95.5%
same,"viability, T/C","second compound 0.00316 µM, first compound 0.316 µM",91.6%
same,"viability, T/C","second compound 0.00316 µM, first compound 1 µM",91.2%
same,"viability, T/C","second compound 0.01 µM, first compound 0.00316 µM",93%
same,"viability, T/C","second compound 0.01 µM, first compound 0.01 µM",101%
same,"viability, T/C","second compound 0.01 µM, first compound 0.0316 µM",94.4%
same,"viability, T/C","second compound 0.01 µM, first compound 0.1 µM",86.2%
same,"viability, T/C","second compound 0.01 µM, first compound 0.316 µM",76.5%
same,"viability, T/C","second compound 0.01 µM, first compound 1 µM",82.5%
same,"viability, T/C","second compound 0.0316 µM, first compound 0.00316 µM",88.2%
same,"viability, T/C","second compound 0.0316 µM, first compound 0.01 µM",98%
same,"viability, T/C",[1],81.8%
same,"viability, T/C",[2],90%
same,"viability, T/C",[3],72.6%
same,"viability, T/C",[4],91%
same,"viability, T/C","second compound 0.1 µM, first compound 0.00316 µM",83.3%
same,"viability, T/C","second compound 0.1 µM, first compound 0.01 µM",90.6%
same,"viability, T/C",[5],71.5%
same,"viability, T/C",[6],58.9%
same,"viability, T/C",[7],56.5%
same,"viability, T/C",[8],73.8%
same,"viability, T/C","second compound 0.316 µM, first compound 0.00316 µM",58.2%
same,"viability, T/C","second compound 0.316 µM, first compound 0.01 µM",49.9%
same,"viability, T/C",[9],51.2%
same,"viability, T/C",[10],48.8%
same,"viability, T/C",[11],47%
same,"viability, T/C",[12],49.1%
same,"viability, T/C","second compound 1 µM, first compound 0.00316 µM",49.7%
same,"viability, T/C","second compound 1 µM, first compound 0.01 µM",36.8%
same,"viability, T/C",[13],35.7%
same,"viability, T/C",[14],32.5%
same,"viability, T/C",[15],37.2%
same,"viability, T/C",[16],44.8%
C[C@@H](NC(=O)c1ncnc(N)c1Cl)c1ncc(C(=O)Nc2cc(C(F)(F)F)c(Cl)cn2)s1 + Cc1nc(NC(=O)N2CCCC2C(N)=O)sc1-c1ccnc(C(C)(C)C(F)(F)F)c1,pIC50,second compound 0.0316 µM,< 5.00
same,pIC50,second compound 0.1 µM,< 5.00
same,pIC50,second compound 0.316 µM,< 5.00
same,pIC50,second compound 1 µM,< 5.00
same,pIC50,second compound 3.16 µM,< 5.00
same,pIC50,second compound 10 µM,> 7.50
same,"viability, T/C",[1],108%
same,"viability, T/C",[2],99.6%
same,"viability, T/C",[3],88.5%
same,"viability, T/C",[4],87.2%
same,"viability, T/C",[17],88%
same,"viability, T/C",[18],102%
same,"viability, T/C",[5],109%
same,"viability, T/C",[6],80.1%
same,"viability, T/C",[7],105%
same,"viability, T/C",[8],80.6%
same,"viability, T/C",[19],93%
same,"viability, T/C",[20],99.5%
same,"viability, T/C",[9],94.3%
same,"viability, T/C",[10],99.5%
same,"viability, T/C",[11],109%
same,"viability, T/C",[12],86.8%
same,"viability, T/C",[21],97.7%
same,"viability, T/C",[22],97.3%
same,"viability, T/C",[13],88%
same,"viability, T/C",[14],86.7%
same,"viability, T/C",[15],90.4%
same,"viability, T/C",[16],91.4%
same,"viability, T/C",[23],95.6%
same,"viability, T/C",[24],100%
same,"viability, T/C",[25],78%
same,"viability, T/C",[26],69.3%
same,"viability, T/C",[27],68.1%
same,"viability, T/C",[28],64%
same,"viability, T/C",[29],74%
same,"viability, T/C",[30],73.2%
same,"viability, T/C",[31],36.7%
same,"viability, T/C",[32],37.1%
same,"viability, T/C",[33],41.8%
same,"viability, T/C",[34],36.7%
same,"viability, T/C",[35],40%
same,"viability, T/C",[36],46.6%
C[C@@H](NC(=O)c1ncnc(N)c1Cl)c1ncc(C(=O)Nc2cc(C(F)(F)F)c(Cl)cn2)s1 + CC(Nc1ncnc2nc[nH]c12)c1cc2cccc(Cl)c2c(=O)n1-c1ccccc1,pIC50,second compound 0.0316 µM,< 5.00
same,pIC50,second compound 0.1 µM,< 5.00
same,pIC50,second compound 0.316 µM,< 5.00
same,pIC50,second compound 1 µM,< 5.00
same,pIC50,second compound 3.16 µM,< 5.00
same,pIC50,second compound 10 µM,< 5.00
same,"viability, T/C",[1],75.3%
same,"viability, T/C",[2],88.3%
same,"viability, T/C",[3],83.8%
same,"viability, T/C",[4],89.1%
same,"viability, T/C",[17],108%
same,"viability, T/C",[18],92.5%
same,"viability, T/C",[5],106%
same,"viability, T/C",[6],90.2%
same,"viability, T/C",[7],86%
same,"viability, T/C",[8],84.3%
same,"viability, T/C",[19],89.9%
same,"viability, T/C",[20],90.9%
same,"viability, T/C",[9],94.8%
same,"viability, T/C",[10],93.2%
same,"viability, T/C",[11],90.3%
same,"viability, T/C",[12],84%
same,"viability, T/C",[21],84.7%
same,"viability, T/C",[22],100%
same,"viability, T/C",[13],80.2%
same,"viability, T/C",[14],105%
same,"viability, T/C",[15],80.9%
same,"viability, T/C",[16],89.2%
same,"viability, T/C",[23],85.8%
same,"viability, T/C",[24],90%
same,"viability, T/C",[25],72.2%
same,"viability, T/C",[26],91.2%
same,"viability, T/C",[27],97.4%
same,"viability, T/C",[28],98.8%
same,"viability, T/C",[29],82%
same,"viability, T/C",[30],80.7%
same,"viability, T/C",[31],105%
same,"viability, T/C",[32],82.1%
same,"viability, T/C",[33],103%
same,"viability, T/C",[34],84.1%
same,"viability, T/C",[35],86.3%
same,"viability, T/C",[36],88.8%
